target: PI3Kβ (Homo sapiens (Human), UniProt P42338); experiment: In vitro enzyme inhibition assay (Kinase Glo based enzyme activity assay); assay type: biochemical; conditions: Test (a), human recombinant enzyme; read-out: PI3Kβ inhibition, IC50
Description: (a) In Vitro Enzyme Inhibition Assay
The inhibition of PI3Kβ, PI3Kα, PI3Kγ and PI3Kδ was evaluated in a Kinase Glo based enzyme activity assay using human recombinant enzymes. The assay measures depletion of ATP after incubation with enzyme, PIP2 and ATP plus compound. ATP at the end of the reaction is detected by addition of Kinase Glo reagent, in this the Ultra Glo™ luciferase (Promega) uses the ATP as a substrate to catalyze the mono-oxygenation of luciferin and the generation of light. A direct relationship exists between the luminescence measured with the Kinase-Glo Plus Reagent and the amount of ATP remaining in a completed kinase reaction and luminescence is inversely related to kinase activity. Twelve different compound concentrations were tested and raw data from the inhibition of PI3 Kb, PI3Kα, PI3Kγ and PI3Kδ was plotted versus inhibitor concentration.
Compounds in 100% DMSO were added to assay plates by acoustic dispensing. PI3Kβ was added in a Tris buffer (50 mM Tris pH7.4, 0.05% CHAPS, 2.1 mM DTT, and 10 mM MgCl2) and allowed to preincubate with compound for 20 minutes prior to addition of substrate solution containing PIP2 and ATP. The enzyme reaction was stopped after 80 minutes by the addition of Kinase Glo detection solution. Plates were left for 30 minutes at room temperature then read on a Pherastar Instrument (Luminescence ATP 384 program) setting gain on max well. The final concentration of DMSO, ATP and PIP2 in the assay were, 1%, 80 μM, and 80 μM respectively.
IC50 values were calculated using a log curve fitting to a non-linear regression package, fitting raw data to inhibitor concentration.

Sequence of PI3Kβ (P42338 whole entry): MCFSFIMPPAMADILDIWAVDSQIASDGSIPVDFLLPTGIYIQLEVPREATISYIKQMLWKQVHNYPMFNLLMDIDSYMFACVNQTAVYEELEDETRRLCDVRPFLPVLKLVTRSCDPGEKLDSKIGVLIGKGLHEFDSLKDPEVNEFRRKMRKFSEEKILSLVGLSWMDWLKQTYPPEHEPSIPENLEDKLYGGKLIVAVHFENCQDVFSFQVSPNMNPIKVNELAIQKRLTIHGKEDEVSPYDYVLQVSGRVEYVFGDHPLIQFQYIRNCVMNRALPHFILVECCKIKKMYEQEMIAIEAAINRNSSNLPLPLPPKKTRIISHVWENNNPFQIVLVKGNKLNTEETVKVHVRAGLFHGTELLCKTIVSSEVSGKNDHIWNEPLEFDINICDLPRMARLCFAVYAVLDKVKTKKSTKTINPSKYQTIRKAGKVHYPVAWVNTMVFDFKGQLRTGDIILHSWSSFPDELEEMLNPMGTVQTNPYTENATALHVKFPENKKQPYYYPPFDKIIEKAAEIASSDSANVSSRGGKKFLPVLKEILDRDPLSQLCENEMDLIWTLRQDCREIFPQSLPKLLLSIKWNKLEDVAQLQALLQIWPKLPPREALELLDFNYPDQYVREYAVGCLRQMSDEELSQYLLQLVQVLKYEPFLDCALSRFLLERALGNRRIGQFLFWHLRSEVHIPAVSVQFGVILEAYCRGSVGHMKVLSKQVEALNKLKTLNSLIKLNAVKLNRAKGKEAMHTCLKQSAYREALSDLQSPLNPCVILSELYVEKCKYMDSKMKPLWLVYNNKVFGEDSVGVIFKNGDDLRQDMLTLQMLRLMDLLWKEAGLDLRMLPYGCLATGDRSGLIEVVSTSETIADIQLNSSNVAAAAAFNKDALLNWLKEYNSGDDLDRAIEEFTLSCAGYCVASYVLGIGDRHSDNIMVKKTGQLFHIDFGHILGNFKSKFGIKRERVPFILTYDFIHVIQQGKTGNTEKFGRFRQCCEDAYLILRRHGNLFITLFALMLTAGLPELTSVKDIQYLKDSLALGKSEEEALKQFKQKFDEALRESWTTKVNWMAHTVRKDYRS
Sequence of PI3Kβ (P27986 whole entry partner): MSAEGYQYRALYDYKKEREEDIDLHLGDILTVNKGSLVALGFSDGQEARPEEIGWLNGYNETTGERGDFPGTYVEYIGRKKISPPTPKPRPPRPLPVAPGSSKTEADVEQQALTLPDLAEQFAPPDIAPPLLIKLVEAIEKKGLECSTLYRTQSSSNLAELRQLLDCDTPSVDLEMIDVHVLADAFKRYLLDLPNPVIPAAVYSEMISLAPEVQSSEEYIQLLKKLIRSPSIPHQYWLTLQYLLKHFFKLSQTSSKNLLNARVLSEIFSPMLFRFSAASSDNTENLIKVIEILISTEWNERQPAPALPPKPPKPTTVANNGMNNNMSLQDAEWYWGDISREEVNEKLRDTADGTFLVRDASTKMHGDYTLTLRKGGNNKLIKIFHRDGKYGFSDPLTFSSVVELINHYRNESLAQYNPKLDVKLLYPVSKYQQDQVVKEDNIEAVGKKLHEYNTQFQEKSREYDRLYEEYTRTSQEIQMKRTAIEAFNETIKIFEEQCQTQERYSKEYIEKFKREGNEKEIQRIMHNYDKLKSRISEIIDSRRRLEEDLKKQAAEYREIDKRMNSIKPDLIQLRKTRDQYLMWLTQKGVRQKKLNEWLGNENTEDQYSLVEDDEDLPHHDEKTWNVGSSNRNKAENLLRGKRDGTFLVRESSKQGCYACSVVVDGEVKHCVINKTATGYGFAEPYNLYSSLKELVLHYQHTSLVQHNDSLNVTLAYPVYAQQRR

| SMILES | IC50 [nM] |
| --- | --- |
| CC(Nc1cc(F)cc(F)c1)c1cc(C(=O)N2CC[C@H](O)C2)cc2c(=O)cc(N3CCOCC3)oc12 (single isomer, unassigned) [Example 2.08] | 7 |
| CC(Nc1ccc(F)c(F)c1)c1cc(C(=O)N(C)C)cc2c(=O)cc(N3CCOCC3)oc12 (single isomer, unassigned) [Example 3.03a, 8-(1-(3,4-difluorophenylamino)ethyl)-N,N-dimethyl-2-morpholino-4-oxo-4H-chromene-6-carboxamide] | 649 |
| CC(Nc1ccc(F)c(F)c1)c1cc(C(=O)N(C)C)cc2c(=O)cc(N3CCOCC3)oc12 (single isomer, unassigned) [Example 3.03b, 8-(1-(3,4-difluorophenylamino)ethyl)-N,N-dimethyl-2-morpholino-4-oxo-4H-chromene-6-carboxamide] | 3 |
| CC(Nc1cccc(Cl)c1F)c1cc(C(=O)N(C)C)cc2c(=O)cc(N3CCOCC3)oc12 (single isomer, unassigned) [Example 3.04a, 8-(1-(3-chloro-2-fluorophenylamino)ethyl)-N,N-dimethyl-2-morpholino-4-oxo-4H-chromene-6-carboxamide] | 2250 |
| CC(Nc1cccc(Cl)c1F)c1cc(C(=O)N(C)C)cc2c(=O)cc(N3CCOCC3)oc12 (single isomer, unassigned) [Example 3.04b, 8-(1-(3-chloro-2-fluorophenylamino)ethyl)-N,N-dimethyl-2-morpholino-4-oxo-4H-chromene-6-carboxamide] | 3 |
| CC(c1cc(C(=O)N2CCC(O)CC2)cc2c(=O)cc(N3CCOCC3)oc12)N(C)c1cc(F)cc(F)c1 (single isomer, unassigned) [Example 7.01a, 8-(1-((3,5-difluorophenyl)(methyl)amino)ethyl)-6-(4-hydroxypiperidine-1-carbonyl)-2-morpholino-4H-chromen-4-one] | 8 |
| CC(c1cc(C(=O)N2CCC(O)CC2)cc2c(=O)cc(N3CCOCC3)oc12)N(C)c1cc(F)cc(F)c1 (single isomer, unassigned) [Example 7.01b, 8-(1-((3,5-difluorophenyl)(methyl)amino)ethyl)-6-(4-hydroxypiperidine-1-carbonyl)-2-morpholino-4H-chromen-4-one] | 4320 |
| CC(Nc1cc(F)cc(F)c1)c1cc(C(=O)N(C)C)cc2c(=O)cc(N3CCO[C@H](C)C3)oc12 (single isomer, unassigned) [Example 9.01a] | 17900 |
| CC(Nc1cc(F)cc(F)c1)c1cc(C(=O)N(C)C)cc2c(=O)cc(N3CCO[C@H](C)C3)oc12 (single isomer, unassigned) [Example 9.01b] | 3 |
| CC(Nc1cc(F)cc(F)c1)c1cc(C(=O)N(C)C)cc2c(=O)cc(N3CCO[C@@H](C)C3)oc12 (single isomer, unassigned) [Example 9.02a] | 22700 |
| CC(Nc1cc(F)cc(F)c1)c1cc(C(=O)N(C)C)cc2c(=O)cc(N3CCO[C@@H](C)C3)oc12 (single isomer, unassigned) [Example 9.02b] | 7 |
| CC(Nc1cc(F)cc(F)c1F)c1cc(C(=O)N(C)C)cc2c(=O)cc(N3CCOCC3)oc12 (single isomer, unassigned; (-)) [Example 3.13b, (−)-N,N-dimethyl-2-morpholino-4-oxo-8-(1-(2,3,5-trifluorophenylamino)ethyl)-4H-chromene-6-carboxamide] | 4 |
| CC(Nc1cccc(F)c1)c1cc(C(=O)NCCN(C)C)cc2c(=O)cc(N3CCOCC3)oc12 (stereo not shown) [Example 1.01, N-(2-(dimethylamino)ethyl)-8-(1-(3-fluorophenylamino)ethyl)-2-morpholino-4-oxo-4H-chromene-6-carboxamide] | 1 |
| CC(Nc1ccccc1)c1cc(C(=O)NCCN(C)C)cc2c(=O)cc(N3CCOCC3)oc12 (stereo not shown) [Example 1.02, N-(2-(dimethylamino)ethyl)-2-morpholino-4-oxo-8-(1-(phenylamino)ethyl)-4H-chromene-6-carboxamide] | 2 |
| CC(Nc1cccc(Cl)c1F)c1cc(C(=O)NCCN(C)C)cc2c(=O)cc(N3CCOCC3)oc12 (stereo not shown) [Example 2.00, 8-(1-(3-chloro-2-fluorophenylamino)ethyl)-N-(2-(dimethylamino)ethyl)-2-morpholino-4-oxo-4H-chromene-6-carboxamide] | 9 |
| CC(Nc1ccc(F)cc1)c1cc(C(=O)N(C)C)cc2c(=O)cc(N3CCOCC3)oc12 (stereo not shown) [Example 2.01, 8-(1-(4-fluorophenylamino)ethyl)-N,N-dimethyl-2-morpholino-4-oxo-4H-chromene-6-carboxamide] | 7 |
| CC(Nc1ccc(F)cc1)c1cc(C(=O)N(C)CCN(C)C)cc2c(=O)cc(N3CCOCC3)oc12 (stereo not shown) [Example 2.02, N-(2-(dimethylamino)ethyl)-8-(1-(4-fluorophenylamino)ethyl)-N-methyl-2-morpholino-4-oxo-4H-chromene-6-carboxamide] | 7 |
| CC(Nc1ccc(F)c(Cl)c1)c1cc(C(=O)N2CCC(O)CC2)cc2c(=O)cc(N3CCOCC3)oc12 (stereo not shown) [Example 2.03, 8-(1-(3-chloro-4-fluorophenylamino)ethyl)-6-(4-hydroxypiperidine-1-carbonyl)-2-morpholino-4h-chromen-4-one] | 6 |
| CC(Nc1ccc(F)c(Cl)c1)c1cc(C(=O)N(C)CCO)cc2c(=O)cc(N3CCOCC3)oc12 (stereo not shown) [Example 2.04, 8-(1-(3-chloro-4-fluorophenylamino)ethyl)-N-(2-hydroxyethyl)-N-methyl-2-morpholino-4-oxo-4H-chromene-6-carboxamide] | 4 |
| CC(Nc1cccc(Cl)c1F)c1cc(C(=O)N2CCC(O)CC2)cc2c(=O)cc(N3CCOCC3)oc12 (stereo not shown) [Example 2.06, 8-(1-(3-chloro-2-fluorophenylamino)ethyl)-6-(4-hydroxypiperidine-1-carbonyl)-2-morpholino-4H-chromen-4-one] | 6 |
| CC(Nc1cc(F)cc(F)c1)c1cc(C(=O)N2CCOCC2)cc2c(=O)cc(N3CCOCC3)oc12 (stereo not shown) [Example 2.07, 8-(1-(3,5-difluorophenylamino)ethyl)-6-(morpholine-4-carbonyl)-2-morpholino-4H-chromen-4-one] | 5 |
| CC(c1cc(C(=O)NCCN(C)C)cc2c(=O)cc(N3CCOCC3)oc12)N(C)c1ccc(F)cc1 (stereo not shown) [Example 3.00, N-(2-(dimethylamino)ethyl)-8-(1-((4-fluorophenyl)(methyl)amino)ethyl)-2-morpholino-4-oxo-4H-chromene-6-carboxamide] | 7 |
| CC(c1cc(C(=O)N(C)CCN(C)C)cc2c(=O)cc(N3CCOCC3)oc12)N(C)c1ccc(F)cc1 (stereo not shown) [Example 3.02, N-(2-(dimethylamino)ethyl)-8-(1-((4-fluorophenyl)(methyl)amino)ethyl)-N-methyl-2-morpholino-4-oxo-4H-chromene-6-carboxamide] | 11 |
| CC(Nc1ccc(F)c(Cl)c1)c1cc(C(=O)N(C)C)cc2c(=O)cc(N3CCOCC3)oc12 (stereo not shown) [Example 3.05, 8-(1-(3-chloro-4-fluorophenylamino)ethyl)-N,N-dimethyl-2-morpholino-4-oxo-4H-chromene-6-carboxamide] | 6 |
| CC(c1cc(C(=O)N(C)C)cc2c(=O)cc(N3CCOCC3)oc12)N(C)c1ccc(F)c(Cl)c1 (stereo not shown) [Example 3.08, 8-(1-((3-chloro-4-fluorophenyl)(methyl)amino)ethyl)-N,N-dimethyl-2-morpholino-4-oxo-4H-chromene-6-carboxamide] | 11 |
| CC(Nc1cccc(Cl)c1)c1cc(C(=O)N(C)C)cc2c(=O)cc(N3CCOCC3)oc12 (stereo not shown) [Example 3.09, 8-(1-(3-chlorophenylamino)ethyl)-N,N-dimethyl-2-morpholino-4-oxo-4H-chromene-6-carboxamide] | 4 |
| CC(Nc1cccc(F)c1F)c1cc(C(=O)N(C)C)cc2c(=O)cc(N3CCOCC3)oc12 (stereo not shown) [Example 3.10, 8-(1-(2,3-difluorophenylamino)ethyl)-N,N-dimethyl-2-morpholino-4-oxo-4H-chromene-6-carboxamide] | 4 |
| CC(Nc1cc(F)cc(F)c1F)c1cc(C(=O)N(C)C)cc2c(=O)cc(N3CCOCC3)oc12 (stereo not shown) [Example 3.13, N,N-dimethyl-2-morpholino-4-oxo-8-(1-(2,3,5-trifluorophenylamino)ethyl)-4H-chromene-6-carboxamide] | 6 |
| CC(Nc1cc(F)ccc1F)c1cc(C(=O)N(C)C)cc2c(=O)cc(N3CCOCC3)oc12 (stereo not shown) [Example 3.15, 8-(1-(2,5-difluorophenylamino)ethyl)-N,N-dimethyl-2-morpholino-4-oxo-4H-chromene-6-carboxamide] | 10 |
| Cc1cc(F)cc(NC(C)c2cc(C(=O)N(C)C)cc3c(=O)cc(N4CCOCC4)oc23)c1 (stereo not shown) [Example 3.16, 8-(1-(3-fluoro-5-methylphenylamino)ethyl)-N,N-dimethyl-2-morpholino-4-oxo-4H-chromene-6-carboxamide] | 5 |

same assay, conditions: mean IC50 value calculated from a larger number of replicates; read-out: PI3Kβ inhibition, IC50 (value in brackets)

| SMILES | IC50 [nM] |
| --- | --- |
| CC(Nc1cccc(F)c1)c1cc(C(=O)N(C)C)cc2c(=O)cc(N3CCOCC3)oc12 (stereo not shown) [Example 3.12, 8-(1-(3-fluorophenylamino)ethyl)-N,N-dimethyl-2-morpholino-4-oxo-4H-chromene-6-carboxamide] | 5 |

Source: patent publication US8673906B2, “Chromenone derivatives” (AstraZeneca AB, priority 2010, dated 2014)
